# According to US4354039A, “Chlorocitric acids” (Hoffmann-La Roche Inc., priority 1981, dated 1982):
# How the values were obtained:
# [1] = Body weight and food intake in meal-fed rats, 16 day study (Example 19); format: in vivo, Charles River female rats; settings: baseline
# Procedure: Two month old Charles River female rats (Charles River Breeding Laboratories, Wilmington, Mass.) were individually housed in wire-bottomedcages in a temperature-regulated (22° C.) light-controlled room (12 hr light, 6 a.m. to 6 p.m. and 12 hr dark, 6 p.m. to 6 a.m.). […] (1) control, (2) (-)-threo-chlorocitric acid (1.0 mmoles/kg, 227 mg/kg) administered by oral intubation 30 min before the 3 hr meal, and (3) (-)-threo-chlorocitric acid (1.1 mmoles/kg, 250 mg/kg) as a dietary admixture for the 3 hr meal. Treatment was continued for 16 days. The amount of body weight gained and food consumed during the study were determined.
# [2] = Body weight and food intake in meal-fed rats, oral, 17 day study (Example 21); format: in vivo, Charles River female rats; settings: for CBWG, cumulative body weight gain / CFC, cumulative food consumption / FBW, final body weight: 17 days; for IBW, initial body weight: baseline
# Procedure: Two month old Charles River female rats (Charles River Breeding Laboratories, Wilmington, Mass.) were individually housed in wire-bottomedcages in a temperature-regulated (22° C.) light-controlled room (12 hr light, 6 a.m. to 6 p.m. and 12 hr dark, 6 p.m. to 6 a.m.). […] On the 8th day, the animals were administered water or (-)-threo-chlorocitric acid at the indicated concentration by oral intubation 30 min before the 3 hr meal. Treatment was continued for 17 days. Food cups were weighed immediately after the meal. The amount of body weight gained and food consumed during the period was determined.
# [3] = Body composition of meal-fed rats, 16 day study (Example 20); format: in vivo, Charles River female rats; settings: in words
# Procedure: Two month old Charles River female rats (Charles River Breeding Laboratories, Wilmington, Mass.) were individually housed in wire-bottomedcages in a temperature-regulated (22° C.) light-controlled room (12 hr light, 6 a.m. to 6 p.m. and 12 hr dark, 6 p.m. to 6 a.m.). […] (1) control, (2) (-)-threo-chlorocitric acid (1.0 mmoles/kg, 227 mg/kg) administered by oral intubation 30 min before the 3 hr meal, and (3) (-)-threo-chlorocitric acid (1.1 mmoles/kg, 250 mg/kg as a dietary admixture for the 3 hr meal. Treatment was continued for 16 days. After 16 days of treatment, rats were killed by decapitation and blood was removed. […] C. Sullivan, et al, Am. J. Clinical Nutrition, 30 767 (1977). […] Total carcass lipid data are expressed in grams and percentages of carcass weight. An aliquot of saponified carcass extract was neutralized and total carcass nitrogen was determined using the Kjeldahl procedure described in "Hawks" Physiological Chemistry," B. L. Oser, ed., McGraw Book Co., New York, N.Y., 1965, page 1214. Carcass protein data are expressed in grams and percentages of carcass weight.
# [4] = Effect on stomach emptying, [14C] glucose load (Example 25); format: in vivo, Rats; settings: 0.33 mmoles/kg oral, 60 min after [14C] glucose load
# Procedure: Rats were trained to consume a 3 hr 70% glucose meal from 8 a.m. to 11 a.m. daily. On the experimental day, compounds were administered orally by intubation 30 min before a [^14 C] glucose load was given also by intubation. […] Sixty minutes later the rats were killed by decapitation; blood and stomachs were collected on ice.
# Data are expressed as follows: dpm×10^3 per ml of serum and dpm×10^3 per stomach.
# [5] = Chow, 0.25 mmoles (57 mg)/kg oral
# [6] = Chow, 0.50 mmoles (114 mg)/kg oral
# [7] = Chow, 1.00 mmoles (227 mg)/kg oral
compound,measurement,setting,value
O=C(O)C[C@@](O)(C(=O)O)[C@@H](Cl)C(=O)O [(-)-threo-Chlorocitric acid],"IBW, initial body weight",[1]; dietary admixture 1.1 mmoles (250 mg)/kg/day,192 ± 5 g
same,"IBW, initial body weight",[1]; oral intubation 1.0 mmoles (227 mg)/kg/day,189 ± 3 g
same,"CBWG, cumulative body weight gain",[2]; [5],-1 ± 4 g
same,"CFC, cumulative food consumption",[2]; [5],186 ± 9 g
same,"FBW, final body weight",[2]; [5],213 ± 7 g
same,"IBW, initial body weight",[2]; [5],214 ± 7 g
same,"CBWG, cumulative body weight gain",[2]; [6],-32 ± 6 g
same,"CFC, cumulative food consumption",[2]; [6],165 ± 9 g
same,"FBW, final body weight",[2]; [6],177 ± 6 g
same,"IBW, initial body weight",[2]; [6],209 ± 5 g
same,"CBWG, cumulative body weight gain",[2]; [7],-30 ± 7 g
same,"CFC, cumulative food consumption",[2]; [7],130 ± 13 g
same,"FBW, final body weight",[2]; [7],176 ± 11 g
same,"IBW, initial body weight",[2]; [7],207 ± 3 g
same,"IBW, initial body weight","[2]; G-70 diet, 0.25 mmoles (57 mg)/kg oral",198 ± 4 g
same,"IBW, initial body weight","[2]; G-70 diet, 0.50 mmoles (114 mg)/kg oral",195 ± 4 g
same,"IBW, initial body weight","[2]; G-70 diet, 1.00 mmoles (227 mg)/kg oral",198 ± 3 g
same,"weight loss, carcass analysis",[3],weight loss was due to reduction in body lipids
same,"Serum, % of control",[4],33 % of control
same,"Stomach Contents, % of control",[4],312 % of control
